Assay results as given in ChEMBL document CHEMBL1150694, “Jatrophane diterpenoids from Euphorbia mongolica as modulators of the multidrug resistance of L5128 mouse lymphoma cells” (J Nat Prod, 2003).

Legend:
Assay type in all cases: cell-based
[1] = target: T1, ATP-dependent translocase ABCB1 (Homo sapiens, UniProt P08183); test: Inhibition of human MDR1 expressed in mouse L5178 cells assessed as fluorescence activity at 112 uM by rhodamine 123 exclusion test; conditions: l5178, 112 µM
[2] = target: T1, ATP-dependent translocase ABCB1; test: Inhibition of human MDR1 expressed in mouse L5178 cells assessed as fluorescence activity ratio at 11.2 uM by rhodamine 123 exclusion test relative to wild type mouse L5178 cells; conditions: l5178, 11.2 µM
[3] = target: T1, ATP-dependent translocase ABCB1; test: Inhibition of human MDR1 expressed in mouse L5178 cells assessed as fluorescence activity ratio at 112 uM by rhodamine 123 exclusion test relative to wild type mouse L5178 cells; conditions: l5178, 112 µM
[4] = target: T1, ATP-dependent translocase ABCB1; test: Inhibition of human MDR1 expressed in mouse L5178 cells assessed as fluorescence activity at 11.2 uM by rhodamine 123 exclusion test; conditions: l5178, 11.2 µM
[5] = target: T1, ATP-dependent translocase ABCB1; test: Inhibition of human MDR1 expressed in mouse L5178 cells assessed as fluorescence activity at 23 uM by rhodamine 123 exclusion test; conditions: l5178, 23 µM

T1 sequence (P08183 whole entry): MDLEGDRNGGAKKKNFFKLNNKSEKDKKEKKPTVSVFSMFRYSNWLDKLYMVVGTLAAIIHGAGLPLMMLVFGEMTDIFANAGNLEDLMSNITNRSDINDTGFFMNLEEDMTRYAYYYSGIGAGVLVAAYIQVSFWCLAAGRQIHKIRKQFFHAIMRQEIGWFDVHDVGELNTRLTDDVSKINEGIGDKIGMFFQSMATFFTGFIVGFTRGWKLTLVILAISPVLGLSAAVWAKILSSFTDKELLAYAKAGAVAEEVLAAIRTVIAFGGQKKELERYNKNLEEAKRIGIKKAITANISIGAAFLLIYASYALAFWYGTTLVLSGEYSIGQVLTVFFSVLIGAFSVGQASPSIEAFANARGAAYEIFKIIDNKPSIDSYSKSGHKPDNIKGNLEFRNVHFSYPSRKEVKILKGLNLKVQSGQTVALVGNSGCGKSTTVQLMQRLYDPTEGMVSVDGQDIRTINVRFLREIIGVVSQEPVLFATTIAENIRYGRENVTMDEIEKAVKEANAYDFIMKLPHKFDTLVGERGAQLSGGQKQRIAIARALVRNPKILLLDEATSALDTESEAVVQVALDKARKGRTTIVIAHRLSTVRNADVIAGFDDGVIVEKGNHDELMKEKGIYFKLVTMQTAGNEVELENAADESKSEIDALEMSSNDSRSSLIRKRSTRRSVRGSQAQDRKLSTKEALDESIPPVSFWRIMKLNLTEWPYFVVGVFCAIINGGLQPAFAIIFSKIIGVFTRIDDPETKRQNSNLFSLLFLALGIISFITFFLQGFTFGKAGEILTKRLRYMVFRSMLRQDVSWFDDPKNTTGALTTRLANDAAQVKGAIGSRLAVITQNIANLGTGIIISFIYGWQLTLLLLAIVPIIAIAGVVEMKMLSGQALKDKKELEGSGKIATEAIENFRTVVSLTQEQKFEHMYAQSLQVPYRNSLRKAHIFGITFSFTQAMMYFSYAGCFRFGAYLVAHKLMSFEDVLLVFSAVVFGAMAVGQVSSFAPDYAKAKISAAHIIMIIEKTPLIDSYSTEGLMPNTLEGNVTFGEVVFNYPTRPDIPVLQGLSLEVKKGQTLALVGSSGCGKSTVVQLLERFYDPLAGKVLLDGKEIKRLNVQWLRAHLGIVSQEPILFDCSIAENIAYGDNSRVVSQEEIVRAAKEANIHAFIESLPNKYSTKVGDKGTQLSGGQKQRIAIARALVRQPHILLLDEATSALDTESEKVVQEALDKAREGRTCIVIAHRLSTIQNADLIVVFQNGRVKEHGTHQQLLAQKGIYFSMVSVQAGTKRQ

Structure (SMILES) | Flu intensity [1] | Ratio [2] | Ratio [3] | Flu intensity [4] | Flu intensity [5]
C=C1[C@H](OC(C)=O)[C@H]2[C@@H](OC(=O)c3ccccc3)[C@@H](C)C[C@]2(O)C(=O)[C@@H](C)/C=C/C(C)(C)C(=O)[C@H](OC(C)=O)[C@H]1OC(C)=O (relative stereo) | 277.08 | 12.29 | 22.92 | 148.64 | –
C=C1[C@H](OC(C)=O)[C@@H](OC(C)=O)[C@@H](OC(C)=O)C(C)(C)/C=C/[C@H](C)C(=O)[C@@]2(OC(C)=O)C[C@H](C)[C@H](OC(=O)c3ccccc3)[C@@H]2[C@H]1OC(C)=O (relative stereo) | 217.81 | 2.6 | 18.02 | 31.46 | –
C=C1[C@H](OC(C)=O)[C@@H](OC(C)=O)[C@@H](OC(C)=O)C(C)(C)/C=C/[C@H](C)C(=O)[C@@]2(OC(C)=O)C[C@H](C)[C@H](OC(C)=O)[C@@H]2[C@H]1OC(=O)c1ccccc1 (relative stereo) | 354.21 | 2.79 | 29.29 | 33.71 | –
COc1ccc(CCN(C)CCCC(C#N)(c2ccc(OC)c(OC)c2)C(C)C)cc1OC (stereo not drawn) | – | – | – | – | 158.9
